Source: US7884242B2, “N-heterocyclylphthaldiamides as insecticides” (Bayer CropScience AG, priority 2004, dated 2011)

How the values were obtained:
[1] = log P determination with LC-MS under acidic conditions, pH 2.7; format: physicochemical; settings: reverse phase HPLC column (C 18)
Protocol: (§1) The determination of the log P values given in the above table and preparation examples is carried out in accordance with EEC directive 79/831 Annex V.A8 by HPLC (High Performance Liquid Chromatography) on a reverse phase column (C 18). Temperature: 43° C. The determination with LC-MS under acidic conditions is carried out at pH 2.7 with 0.1% aqueous formic acid and acetonitrile (contains 01% formic acid) as eluents; linear gradient from 10% acetonitrile to 95% acetonitrile. Calibration was is carried out with unbranched alkan-2-ones (with 3 to 16 carbon atoms) of known log P values (Determination of log P values by the retention times by linear interpolation between two sequential alkanones).

[2] = test system: green peach aphid (Myzus persicae); test: Myzus test (spray treatment); format: in vivo; settings: for pest or weed control at 100 g/ha: Myzus persicae, in Brassica oleracea, 120 h, spray treatment, China cabbage slices, after 5 d, read-out: Death rate in % after 5d; for activity in Myzus test (spray treatment): statement in words
Protocol: [table] For the preparation of a suitable active compound formulation 1 part by weight of the active compound is mixed with the above amounts of solvent and emulsifier and the concentrate is diluted to the desired concentration with water containing emulsifier. China cabbage slices (Brassica pekinensis) that are infected with all stages of the green peach aphid (Myzus persicae) are sprayed with an active compound preparation at the desired concentration. After the desired time the activity in % is determined. Here 100% means that all aphids were killed; 0% means that no aphids were killed.

[3] = test system: green peach aphid (Myzus persicae); test: Myzus persicae test; hydroponic treatment; format: in vivo; settings: for Death rate in % after 6d: 20 ppm in water, hydroponic treatment, pea plant; for activity in Myzus persicae test; hydroponic treatment: statement in words
Protocol: [table] For the preparation of a suitable active compound formulation 1 part by weight of the active compound is mixed with the above amounts of solvent and emulsifier and the concentrate is diluted to the desired concentration with water. The active compound preparation is mixed with water. The concentration given refers to the amount of active compound per unit volume of water (mg/l=ppm). The treated water is placed in a vessel with a pea plant (Pisum sativum) which is then infection with the green peach aphid (Myzus persicae) is carried out. After the desired time the death rate in % is determined. Here 100% means that all aphids were killed, 0% means that no aphids were killed.

[4] = log P determination by HPLC on reverse phase column, pH 2.3; format: physicochemical; settings: reverse phase HPLC column (C 18), reverse phase column (C 18), pH 2.3, 43° C.
Protocol: as §1, with “is carried out” for “with LC-MS”, “conditions” for “conditions is carried out”, “2.3” for “2.7”, “phosphoric” for “formic”, “acetonitrile” for “acetonitrile (contains 01% formic acid)”, “of” for “from”

[5] = test system: caterpillars of the fall army worm (Spodoptera frugiperda); test: Spodoptera frugiperda test (spray treatment); format: in vivo; settings: for pest or weed control at 4 g/ha: Spodoptera frugiperda, 168 h, spray treatment, maize leaf sections, after 7 d, read-out: Death rate in % after 7d; for activity in Spodoptera frugiperda test (spray treatment): statement in words
Protocol: [table] For the preparation of a suitable active compound formulation 1 part by weight of the active compound is mixed with the above amounts of solvent and emulsifier and the concentrate is diluted to the desired concentration with water containing emulsifier. Maize leaf sections (Zea mays) are sprayed with an active compound preparation of the desired concentration and after drying infected with caterpillars of the fall army worm (Spodoptera frugiperda). After the desired time the activity in % is determined. Here 100% means that all caterpillars were killed; 0% means that no caterpillars were killed.

[6] = test system: caterpillars of the diamond back moth (Plutella xylostella); test: Plutella test; format: in vivo; settings: for Death rate in % after 7d: cabbage leaves dipped; for activity in Plutella test: statement in words
Protocol: [table] For the preparation of a suitable active compound formulation 1 part by weight of the active compound is mixed with the above amounts of solvent and emulsifier and the concentrate is diluted to the desired concentration with water containing emulsifier. Cabbage leaves (Brassica oleracea) are treated by dipping into the active compound preparation of the desired concentration and infected with caterpillars of the diamond back moth (Plutella xylostella) while the leaves were still wet. After the desired time the death rate is determined as %. Here 100% means that all caterpillars were killed; 0% means no caterpillars were killed.

[7] = test system: larvae of the mustard leaf beetle (Phaedon cochleariae); test: Phaedon test (spray treatment); format: in vivo; settings: for activity in Phaedon test (spray treatment): statement in words
Protocol: [table] For the preparation of a suitable active compound formulation 1 part by weight of the active compound is mixed with the above amounts of solvent and emulsifier and the concentrate is diluted to the desired concentration with water containing emulsifier. China cabbage slices (Brassica pekinensis) are sprayed with an active compound preparation of the desired composition and after drying infected with larvae of the mustard leaf beetle (Phaedon cochleariae). After the desired time the activity in % is determined. Here 100% means that all beetle larvae were killed; 0% means that no beetle larvae were killed.

[8] = test system: cotton aphid (Aphis gossypii); test: Aphis gossypii test; format: in vivo; settings: for Death rate in % after 7d: cotton leaves immersed; for activity in Aphis gossypii test: statement in words
Protocol: [table] For the preparation of a suitable active compound formulation 1 part by weight of the active compound is mixed with the above amounts of solvent and emulsifier and the concentrate is diluted to the desired concentration with water containing emulsifier. Cotton leaves (Gossypium hirsutum) heavily infested with the cotton aphid (Aphis gossypii) are treated by immersion in the active compound preparation at the desired concentration. After the desired time the death rate in % is determined. Here 100% means that all aphids were killed; 0% means that no aphids were killed.

[9] = test system: two-spotted spider mite (Tetranychus urticae); test: Tetranychus Test OP resistant; format: in vivo
Protocol: [table] For the preparation of a suitable active compound formulation 1 part by weight of the active compound is mixed with the above amounts of solvent and emulsifier and the concentrate is diluted to the desired concentration with water containing emulsifier. Bean leaf slices (Phaseolus vulgaris) that are infested by all stages of the two-spotted spider mite (Tetranychus urticae) are sprayed with an active substance preparation at the desired concentration. After the desired time the action in % is determined. Here 100% means that all spider mites were killed; 0% means that no spider mites were killed.

[10] = test system: caterpillars of the beet army worm (Spodoptera exigua); test: Spodoptera exigua test (resistant strain); format: in vivo
Protocol: [table] For the preparation of a suitable active compound formulation 1 part by weight of the active compound is mixed with the above amounts of solvent and emulsifier and the concentrate is diluted to the desired concentration with water containing emulsifier. Cabbage leaves (Brassica oleracea) are treated by dipping in the active compound preparation at the desired concentration and infected with caterpillars of the beet army worm (Spodoptera exigua) while the leaves are still moist. After the desired time the death rate in % is determined. Here 100% means that all caterpillars were killed; 0% means that no caterpillars were killed.

[11] = Phaedon cochleariae, 168 h, spray treatment, China cabbage slices, after 7 d, read-out: Death rate in % after 7d

Structure (SMILES) | chromatographic logP [1] | pest or weed control at 100 g/ha [2] [%] | activity in Myzus test (spray treatment) [2] | chromatographic logP [4] | pest or weed control at 4 g/ha [5] [%] | activity in Spodoptera frugiperda test (spray treatment) [5] | activity in Phaedon test (spray treatment) [7] | other results
Cc1nc(CBr)ccc1[N+](=O)[O-] [VII-1, 6-(bromomethyl)-2-methyl-3-nitropyridine] | 2.2 |  |  |  |  |  |  | 
Cc1sc(CO)cc1[N+](=O)[O-] [(5-methyl-4-nitro-2-thienyl)methanol] | 1.4 |  |  |  |  |  |  | 
Cc1nc(Cn2nc(C(F)(F)F)cc2C(F)(F)F)ccc1[N+](=O)[O-] [IV-1, 6-{[3,5-bis(trifluoromethyl)-1H-pyrazol-1-yl]methyl}-2-methyl-3-nitropyridine] | 3.8 |  |  |  |  |  |  | 
Cc1nc(Cn2nc(C(F)(F)F)cc2C(F)(F)F)ncc1NC(=O)c1cccc(I)c1C(=O)N[C@@H](C)C[S+](C)[O-] (stereo partly drawn) [Example 24] |  | 100 | good activity | 2.27 | 83 | good activity |  | Death rate in % after 6d [3]: 95%; activity in Myzus persicae test; hydroponic treatment [3]: good activity
CSC[C@H](C)NC(=O)c1c(I)cccc1C(=O)Nc1ccc(Cn2nc(C(F)(F)F)cc2C(F)(F)F)nc1C [Example 6] |  | 100 | good activity | 3.68 | 100 | good activity | good activity | Death rate in % after 7d ([6]; 0.8 ppm): 100%; activity in Plutella test [6]: good activity; pest or weed control at 100 g/ha [7, 11]: 100%; Death rate in % after 7d ([8]; 20 ppm): 95%; activity in Aphis gossypii test [8]: good activity
CSC[C@H](C)NC(=O)c1c(Cl)cccc1C(=O)Nc1cnc(Cn2cc(C(F)(F)C(F)(F)F)c(C(F)(F)C(F)(F)F)n2)nc1C [Example 64] |  | 100 | good activity | 4.11 | 100 | good activity | good activity | Death rate in % after 5d ([9]; 100 g/ha, OP resistant, bean leaf slices sprayed, after 5 d): 100%; activity in Tetranychus Test OP resistant ([9]; statement in words): good activity; pest or weed control at 4 g/ha ([7]; Phaedon cochleariae, 168 h, 4 g/ha, spray treatment, China cabbage slices, after 7 d, read-out: Death rate in % after 7d): 100%
Cc1nc(Cn2nc(C(F)(F)F)cc2C(F)(F)F)ccc1NC(=O)c1cccc(Cl)c1C(=O)N[C@@H](C)CS(C)(=O)=O [Example 9] |  | 100 | good activity | 2.69 | 100 | good activity | good activity | Death rate in % after 7d ([10]; 0.8 ppm, resistant strain, cabbage leaves dipped, after 7 d): 80%; activity in Spodoptera exigua test (resistant strain) ([10]; statement in words): good activity; pest or weed control at 100 g/ha [7, 11]: 100%
Cc1nc(Cn2nc(C(F)(F)F)nc2C(F)(F)F)ncc1NC(=O)c1cccc(I)c1C(=O)N[C@@H](C)CS(C)(=O)=O [Example 41] |  | 90 | good activity | 2.54 |  |  |  | Death rate in % after 6d [3]: 95%; activity in Myzus persicae test; hydroponic treatment [3]: good activity
Cc1sc(Cn2nc(C(F)(F)F)nc2C(F)(F)F)cc1N [IIIb-1, 5-{[3,5-bis(trifluoromethyl)-1H-1,2,4-triazol-1-yl]methyl}-2-methylthiophene-3-amine] | 2.2 |  |  |  |  |  |  | 
Cc1nc(Cn2nc(C(F)(F)F)cc2C(F)(F)F)ccc1N [IIIa-1, 6-{[3,5-bis(trifluoromethyl)-1H-pyrazol-1-yl]methyl}-2-methylpyridin-3-amine] | 1.9 |  |  |  |  |  |  | 
Cc1nc(Cn2nc(C(F)(F)F)nc2C(F)(F)F)ccc1NC(=O)c1cccc(Cl)c1C(=O)N[C@@H](C)CS(C)(=O)=O [Example 16] |  | 100 | good activity | 2.56 | 100 | good activity | good activity | Death rate in % after 7d ([6]; 0.16 ppm): 100%; activity in Plutella test [6]: good activity; pest or weed control at 100 g/ha [7, 11]: 100%; Death rate in % after 7d ([8]; 100 ppm): 80%; activity in Aphis gossypii test [8]: good activity
